Results taken from patent publication US9951028B2, “Agricultural chemicals” (REDAG CROP PROTECTION LTD, priority 2013, dated 2018).

Assays:
[1] = system: garden cress, Lepidium sativum; assay: Herbicidal efficacy screen, potter tower spray, necrosis assessed; type: in vivo
Method: (§1) Compounds 22, 23 and 24 were screened for herbicidal efficacy against target plants: garden cress, Lepidium sativum, common chickweed, Stellaria media, and white mustard […] alba Plants were obtained as seeds and were grown to the 2-4 true leaf stage. Plants were grown under laboratory conditions, individually in seed trays. Each plant (in an approximately 3 cm diameter plug) was then detached from the tray for spraying. The compounds were screened at a range of five concentrations, diluted in acetone and TweenTM. A carrier only control was also conducted. Treatments were applied directly onto the plants, using a potter tower, at a specified application rate. One plant of each species was sprayed using a potter tower. The 3 different types of plants were placed on a 10 cm diameter platform directly beneath the potter sprayer and sprayed simultaneously. The growth of the plants and any Phytotoxicity effects were then assessed at intervals over 21 days, according to EPPO guideline PP1/135. Five replicas were performed for each treatment, for each species. In the tables below C represents a percentage increase in necrosis relative to the control of 0.1-50; B represents a percentage inhibition of 50-80; and A represents a percentage inhibition of 80-100.

[2] = system: common chickweed, Stellaria media; assay: as above; type: in vivo
Method: as §1

[3] = 12.5 g/ha, day 1 post application
[4] = 12.5 g/ha, day 2 post application
[5] = 12.5 g/ha, day 3 post application
[6] = 12.5 g/ha, day 4 post application
[7] = 12.5 g/ha, day 5 post application
[8] = 12.5 g/ha, day 7 post application
[9] = 12.5 g/ha, day 10 post application
[10] = 25 g/ha, day 1 post application
[11] = 25 g/ha, day 2 post application
[12] = 25 g/ha, day 3 post application
[13] = 25 g/ha, day 4 post application
[14] = 25 g/ha, day 5 post application
[15] = 25 g/ha, day 7 post application
[16] = 25 g/ha, day 10 post application
[17] = 50 g/ha, day 1 post application
[18] = 50 g/ha, day 2 post application
[19] = 50 g/ha, day 3 post application
[20] = 50 g/ha, day 4 post application
[21] = 50 g/ha, day 5 post application
[22] = 50 g/ha, day 7 post application
[23] = 50 g/ha, day 10 post application
[24] = 100 g/ha, day 1 post application
[25] = 100 g/ha, day 2 post application
[26] = 100 g/ha, day 3 post application
[27] = 100 g/ha, day 4 post application
[28] = 100 g/ha, day 5 post application
[29] = 100 g/ha, day 7 post application
[30] = 100 g/ha, day 10 post application
[31] = 200 g/ha, day 1 post application
[32] = 200 g/ha, day 2 post application
[33] = 200 g/ha, day 3 post application
[34] = 200 g/ha, day 4 post application

CC(C)N(C)S(=O)(=O)/N=C/c1cc(-n2c(=O)cc(C(F)(F)F)n(C)c2=O)c(F)cc1Cl [Compound 22, 1-[4-Chloro-2-fluoro-5-[(E)-(isopropyl(methyl)sulfamoyl)iminomethyl]phenyl]-3-methyl-2,6-dioxo-4-(trifluoromethyl)pyrimidine]
Average of necrosis [1, 3]: C (C represents a percentage increase in necrosis relative to the control of 0.1-50)
Average of necrosis [1, 4]: C (C represents a percentage increase in necrosis relative to the control of 0.1-50)
Average of necrosis [1, 5]: C (C represents a percentage increase in necrosis relative to the control of 0.1-50)
Average of necrosis [1, 6]: C (C represents a percentage increase in necrosis relative to the control of 0.1-50)
Average of necrosis [1, 7]: C (C represents a percentage increase in necrosis relative to the control of 0.1-50)
Average of necrosis [1, 8]: C (C represents a percentage increase in necrosis relative to the control of 0.1-50)
Average of necrosis [1, 9]: B (B represents a percentage inhibition of 50-80)
Average of necrosis [1, 10]: C (C represents a percentage increase in necrosis relative to the control of 0.1-50)
Average of necrosis [1, 11]: C (C represents a percentage increase in necrosis relative to the control of 0.1-50)
Average of necrosis [1, 12]: C (C represents a percentage increase in necrosis relative to the control of 0.1-50)
Average of necrosis [1, 13]: C (C represents a percentage increase in necrosis relative to the control of 0.1-50)
Average of necrosis [1, 14]: C (C represents a percentage increase in necrosis relative to the control of 0.1-50)
Average of necrosis [1, 15]: C (C represents a percentage increase in necrosis relative to the control of 0.1-50)
Average of necrosis [1, 16]: A (A represents a percentage inhibition of 80-100)
Average of necrosis [1, 17]: C (C represents a percentage increase in necrosis relative to the control of 0.1-50)
Average of necrosis [1, 18]: C (C represents a percentage increase in necrosis relative to the control of 0.1-50)
Average of necrosis [1, 19]: C (C represents a percentage increase in necrosis relative to the control of 0.1-50)
Average of necrosis [1, 20]: C (C represents a percentage increase in necrosis relative to the control of 0.1-50)
Average of necrosis [1, 21]: B (B represents a percentage inhibition of 50-80)
Average of necrosis [1, 22]: B (B represents a percentage inhibition of 50-80)
Average of necrosis [1, 23]: B (B represents a percentage inhibition of 50-80)
Average of necrosis [1, 24]: C (C represents a percentage increase in necrosis relative to the control of 0.1-50)
Average of necrosis [1, 25]: C (C represents a percentage increase in necrosis relative to the control of 0.1-50)
Average of necrosis [1, 26]: C (C represents a percentage increase in necrosis relative to the control of 0.1-50)
Average of necrosis [1, 27]: C (C represents a percentage increase in necrosis relative to the control of 0.1-50)
Average of necrosis [1, 28]: B (B represents a percentage inhibition of 50-80)
Average of necrosis [1, 29]: B (B represents a percentage inhibition of 50-80)
Average of necrosis [1, 30]: B (B represents a percentage inhibition of 50-80)
Average of necrosis [1, 31]: C (C represents a percentage increase in necrosis relative to the control of 0.1-50)
Average of necrosis [1, 32]: C (C represents a percentage increase in necrosis relative to the control of 0.1-50)
Average of necrosis [1, 33]: C (C represents a percentage increase in necrosis relative to the control of 0.1-50)
Average of necrosis [1, 34]: C (C represents a percentage increase in necrosis relative to the control of 0.1-50)
Average of necrosis ([1]; 200 g/ha, day 5 post application): B (B represents a percentage inhibition of 50-80)
Average of necrosis ([1]; 200 g/ha, day 7 post application): B (B represents a percentage inhibition of 50-80)
Average of necrosis ([1]; 200 g/ha, day 10 post application): A (A represents a percentage inhibition of 80-100)
Average of necrosis [2, 3]: C (C represents a percentage increase in necrosis relative to the control of 0.1-50)
Average of necrosis [2, 4]: C (C represents a percentage increase in necrosis relative to the control of 0.1-50)
Average of necrosis [2, 5]: C (C represents a percentage increase in necrosis relative to the control of 0.1-50)
Average of necrosis [2, 6]: C (C represents a percentage increase in necrosis relative to the control of 0.1-50)
Average of necrosis [2, 7]: B (B represents a percentage inhibition of 50-80)
Average of necrosis [2, 8]: B (B represents a percentage inhibition of 50-80)
Average of necrosis [2, 9]: B (B represents a percentage inhibition of 50-80)
Average of necrosis [2, 10]: C (C represents a percentage increase in necrosis relative to the control of 0.1-50)
Average of necrosis [2, 11]: C (C represents a percentage increase in necrosis relative to the control of 0.1-50)
Average of necrosis [2, 12]: C (C represents a percentage increase in necrosis relative to the control of 0.1-50)
Average of necrosis [2, 13]: C (C represents a percentage increase in necrosis relative to the control of 0.1-50)
Average of necrosis [2, 14]: A (A represents a percentage inhibition of 80-100)
Average of necrosis [2, 15]: A (A represents a percentage inhibition of 80-100)
Average of necrosis [2, 16]: A (A represents a percentage inhibition of 80-100)
Average of necrosis [2, 17]: C (C represents a percentage increase in necrosis relative to the control of 0.1-50)
Average of necrosis [2, 18]: C (C represents a percentage increase in necrosis relative to the control of 0.1-50)
Average of necrosis [2, 19]: C (C represents a percentage increase in necrosis relative to the control of 0.1-50)
Average of necrosis [2, 20]: B (B represents a percentage inhibition of 50-80)
Average of necrosis [2, 21]: B (B represents a percentage inhibition of 50-80)
Average of necrosis [2, 22]: B (B represents a percentage inhibition of 50-80)
Average of necrosis [2, 23]: A (A represents a percentage inhibition of 80-100)
Average of necrosis [2, 24]: C (C represents a percentage increase in necrosis relative to the control of 0.1-50)
Average of necrosis [2, 25]: C (C represents a percentage increase in necrosis relative to the control of 0.1-50)
Average of necrosis [2, 26]: C (C represents a percentage increase in necrosis relative to the control of 0.1-50)
Average of necrosis [2, 27]: B (B represents a percentage inhibition of 50-80)
Average of necrosis [2, 28]: A (A represents a percentage inhibition of 80-100)
Average of necrosis [2, 29]: A (A represents a percentage inhibition of 80-100)
Average of necrosis [2, 30]: A (A represents a percentage inhibition of 80-100)
Average of necrosis [2, 31]: C (C represents a percentage increase in necrosis relative to the control of 0.1-50)
Average of necrosis [2, 32]: C (C represents a percentage increase in necrosis relative to the control of 0.1-50)
Average of necrosis [2, 33]: C (C represents a percentage increase in necrosis relative to the control of 0.1-50)
Average of necrosis [2, 34]: B (B represents a percentage inhibition of 50-80)
